Laboratory results reported in ChEMBL document CHEMBL4420076, “Amylin and calcitonin receptor agonist” (2017).
Peptide text beside a SMILES is read from it. * marks the point of attachment. C18 diacid = O=C(O)CCCCCCCCCCCCCCCCC(=O)*

Columns and labels:
[1] = Solubility in 100 mM glycylglycine buffer at pH 3.0 incubated for 18 hrs by UPLC analysis; assay type: physicochemical
[2] = Solubility in 100 mM glycylglycine buffer at pH 5.0 incubated for 18 hrs by UPLC analysis; assay type: physicochemical
[3] = Solubility in 100 mM bistrispropane buffer at pH 6.5 incubated for 18 hrs by UPLC analysis; assay type: physicochemical
[4] = Solubility in 100 mM bistrispropane buffer at pH 7.5 incubated for 18 hrs by UPLC analysis; assay type: physicochemical
[5] = Solubility in 100 mM bistrispropane buffer at pH 7.0 incubated for 18 hrs by UPLC analysis; assay type: physicochemical
Calcitonin receptor = molecular target: T1, Calcitonin receptor (Homo sapiens, UniProt P30988); assay: Agonist activity at human calcitonin receptor expressed in BHK570 cells assessed as increase in intracellular cAMP concentration incubated for 3 hrs in absence of albumin by CRE luciferase reporter gene assay; assay type: functional, cell-based
T1 sequence (P30988 whole entry): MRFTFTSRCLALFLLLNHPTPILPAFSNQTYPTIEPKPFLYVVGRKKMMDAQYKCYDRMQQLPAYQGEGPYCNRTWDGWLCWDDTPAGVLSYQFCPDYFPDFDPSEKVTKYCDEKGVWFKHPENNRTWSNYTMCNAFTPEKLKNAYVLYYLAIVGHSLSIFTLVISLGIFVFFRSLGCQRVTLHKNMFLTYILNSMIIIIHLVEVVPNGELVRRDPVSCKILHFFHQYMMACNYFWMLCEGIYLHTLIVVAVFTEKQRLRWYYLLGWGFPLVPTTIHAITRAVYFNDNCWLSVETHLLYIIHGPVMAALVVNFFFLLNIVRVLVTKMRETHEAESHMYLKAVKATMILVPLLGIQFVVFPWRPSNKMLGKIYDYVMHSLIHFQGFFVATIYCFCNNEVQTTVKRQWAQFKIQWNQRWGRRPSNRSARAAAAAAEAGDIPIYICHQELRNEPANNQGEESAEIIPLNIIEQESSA

[6] = molecular target: T2, Amylin receptor AMY3; CALCR/RAMP3 (Homo sapiens, UniProt O60896+P30988); assay: Displacement of [125I]-labeled rat amylin from human amylin receptor expressed in BHK tkts13 whole cells co-expressing RAMP3 incubated for 60 mins by scintillation proximity assay; assay type: cell-based
T2 sequence (P30988 whole entry): T1 sequence (P30988 whole entry)
T2 sequence (O60896 whole entry): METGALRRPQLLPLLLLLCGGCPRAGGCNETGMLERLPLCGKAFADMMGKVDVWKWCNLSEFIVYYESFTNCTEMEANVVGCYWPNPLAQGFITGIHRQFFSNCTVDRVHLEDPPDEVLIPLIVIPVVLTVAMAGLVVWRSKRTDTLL

[7] = molecular target: T2, Amylin receptor AMY3; CALCR/RAMP3; assay: Agonist activity at human amylin receptor expressed in BHK570 cells co-expressing RAMP3 assessed as increase in intracellular cAMP concentration incubated for 3 hrs in absence of albumin by CRE luciferase reporter gene assay; assay type: functional, cell-based
[8] = Solubility in 100 mM bistrispropane buffer at pH 6.0 incubated for 18 hrs by UPLC analysis; assay type: physicochemical
[9] = Solubility in 100 mM bistrispropane buffer at pH 8.0 incubated for 18 hrs by UPLC analysis; assay type: physicochemical
[10] = Solubility in 100 mM glycylglycine buffer at pH 4.0 incubated for 18 hrs by UPLC analysis; assay type: physicochemical

| solubility at 18 h [1] [µM] | solubility at 18 h [2] [µM] | solubility at 18 h [3] [µM] | solubility at 18 h [4] [µM] | solubility at 18 h [5] [µM] | EC50 (Calcitonin receptor) [pM] | IC50 [6] [pM] | EC50 [7] [pM] | solubility at 18 h [8] [µM] | solubility at 18 h [9] [µM] | solubility at 18 h [10] [µM] | Compound |
| --- | --- | --- | --- | --- | --- | --- | --- | --- | --- | --- | --- |
| ≥ 200 | ≥ 200 | ≥ 200 | ≥ 200 | ≥ 200 | 9 | 1310 | 15 | ≥ 200 | ≥ 200 | ≥ 200 | CC(C)C[C@H](NC(=O)[C@H](C)NC(=O)[C@H](C)NC(=O)[C@@H](NC(=O)[C@H](Cc1cnc[nH]1)NC(=O)[C@H](CC(C)C)NC(=O)[C@H](CCC(=O)O)NC(=O)[C@H](CO)NC(=O)[C@H](C)NC(=O)[C@H](CCC(=O)O)NC(=O)CCCCCCCCCCCCCCCCC(=O)O)[C@@H](C)O)C(=O)NCC(=O)N[C@@H](CCCNC(=N)N)C(=O)N[C@@H](CC(C)C)C(=O)N[C@@H](CO)C(=O)N[C@@H](C)C(=O)N[C@@H](CCC(=O)O)C(=O)N[C@@H](CC(C)C)C(=O)N[C@@H](Cc1cnc[nH]1)C(=O)N[C@@H](CCC(=O)O)C(=O)N[C@@H](CC(C)C)C(=O)N[C@@H](C)C(=O)N[C@H](C(=O)N[C@@H](CC(C)C)C(=O)N1CCC[C@H]1C(=O)N[C@@H](CCCNC(=N)N)C(=O)N[C@H](C(=O)N[C@@H](CCC(=O)O)C(=O)N[C@H](C(=O)NCC(=O)N1CCC[C@H]1C(=O)N[C@@H](CCC(=O)O)C(=O)N[C@@H](CO)C(=O)N1CCC[C@H]1C(N)=O)[C@@H](C)O)[C@@H](C)O)[C@@H](C)O ({C18 diacid}-EASELHTAALGRLSAELHELATLPRTETGPESP-NH2) |
| ≥ 200 | ≥ 200 | ≥ 200 | ≥ 200 | ≥ 200 | 5 | 1480 | 7 | ≥ 200 | ≥ 200 | ≥ 200 | CC[C@H](C)[C@H](NC(=O)[C@H](CCC(=O)O)NC(=O)[C@H](C)NC(=O)[C@H](CO)NC(=O)[C@H](CC(C)C)NC(=O)[C@H](CCCNC(=N)N)NC(=O)CNC(=O)[C@H](CC(C)C)NC(=O)[C@H](C)NC(=O)[C@H](C)NC(=O)[C@@H](NC(=O)[C@H](CO)NC(=O)[C@H](CC(C)C)NC(=O)[C@H](CCC(=O)O)NC(=O)[C@H](CO)NC(=O)[C@H](C)NC(=O)[C@H](CCC(=O)O)NC(=O)CCCCCCCCCCCCCCCCC(=O)O)[C@@H](C)O)C(=O)N[C@@H](Cc1cnc[nH]1)C(=O)N[C@@H](CCC(=O)O)C(=O)N[C@@H](CC(C)C)C(=O)N[C@@H](C)C(=O)N[C@H](C(=O)N[C@@H](CC(C)C)C(=O)N1CCC[C@H]1C(=O)N[C@@H](CCCNC(=N)N)C(=O)N[C@H](C(=O)N[C@@H](CCC(=O)O)C(=O)N[C@H](C(=O)NCC(=O)N1CCC[C@H]1C(=O)N[C@@H](CCC(=O)O)C(=O)N[C@@H](CO)C(=O)N1CCC[C@H]1C(N)=O)[C@@H](C)O)[C@@H](C)O)[C@@H](C)O ({C18 diacid}-EASELSTAALGRLSAEIHELATLPRTETGPESP-NH2) |
| ≥ 200 | ≥ 200 | ≥ 200 | ≥ 200 | ≥ 200 | 5 | 511 | 6 | ≥ 200 | ≥ 200 | ≥ 200 | CC[C@H](C)[C@H](NC(=O)[C@H](CCC(=O)O)NC(=O)[C@H](Cc1cnc[nH]1)NC(=O)[C@H](CC(C)C)NC(=O)[C@H](CCC(=O)O)NC(=O)[C@H](C)NC(=O)[C@H](CO)NC(=O)[C@H](CC(C)C)NC(=O)[C@H](CCCNC(=N)N)NC(=O)CNC(=O)[C@H](CC(C)C)NC(=O)[C@H](C)NC(=O)[C@H](C)NC(=O)[C@@H](NC(=O)[C@H](CO)NC(=O)[C@H](CC(C)C)NC(=O)[C@H](CCC(=O)O)NC(=O)[C@H](CO)NC(=O)[C@H](C)NC(=O)[C@H](CCC(=O)O)NC(=O)CCCCCCCCCCCCCCCCC(=O)O)[C@@H](C)O)C(=O)N[C@@H](C)C(=O)N[C@H](C(=O)N[C@@H](CC(C)C)C(=O)N1CCC[C@H]1C(=O)N[C@@H](CCCNC(=N)N)C(=O)N[C@H](C(=O)N[C@@H](CCC(=O)O)C(=O)N[C@H](C(=O)NCC(=O)N1CCC[C@H]1C(=O)N[C@@H](CCC(=O)O)C(=O)N[C@@H](CO)C(=O)N1CCC[C@H]1C(N)=O)[C@@H](C)O)[C@@H](C)O)[C@@H](C)O ({C18 diacid}-EASELSTAALGRLSAELHEIATLPRTETGPESP-NH2) |
| ≥ 200 | ≥ 200 | ≥ 200 | ≥ 200 | ≥ 200 | 12 | 9000 | 31 | ≥ 200 | ≥ 200 | ≥ 200 | CC(C)C[C@H](NC(=O)[C@H](CCC(=O)O)NC(=O)[C@H](Cc1cnc[nH]1)NC(=O)[C@H](CC(C)C)NC(=O)[C@H](CCC(=O)O)NC(=O)[C@H](C)NC(=O)[C@H](CO)NC(=O)[C@H](CC(C)C)NC(=O)[C@H](CCCNC(=N)N)NC(=O)CNC(=O)[C@H](CC(C)C)NC(=O)[C@@H](NC(=O)[C@H](C)NC(=O)[C@@H](NC(=O)[C@H](CO)NC(=O)[C@H](CC(C)C)NC(=O)[C@H](CCC(=O)O)NC(=O)[C@H](CO)NC(=O)[C@H](C)NC(=O)[C@H](CCC(=O)O)NC(=O)CCCCCCCCCCCCCCCCC(=O)O)[C@@H](C)O)C(C)C)C(=O)N[C@@H](C)C(=O)N[C@H](C(=O)N[C@@H](CC(C)C)C(=O)N1CCC[C@H]1C(=O)N[C@@H](CCCNC(=N)N)C(=O)N[C@H](C(=O)N[C@@H](CCC(=O)O)C(=O)N1CCC[C@H]1C(=O)NCC(=O)N1CCC[C@H]1C(=O)N[C@@H](CCC(=O)O)C(=O)N[C@@H](CO)C(=O)N1CCC[C@H]1C(N)=O)[C@@H](C)O)[C@@H](C)O ({C18 diacid}-EASELSTAVLGRLSAELHELATLPRTEPGPESP-NH2) |
| ≥ 200 | ≥ 200 | ≥ 200 | ≥ 200 | ≥ 200 | 7 | 275 | 9 | ≥ 200 | ≥ 200 | ≥ 200 | CC(C)C[C@H](NC(=O)[C@H](C)NC(=O)[C@H](CC(C)C)NC(=O)[C@@H](NC(=O)[C@H](CO)NC(=O)[C@H](CC(C)C)NC(=O)[C@H](CCC(=O)O)NC(=O)[C@H](CO)NC(=O)[C@H](C)NC(=O)[C@H](CCC(=O)O)NC(=O)CCCCCCCCCCCCCCCCC(=O)O)[C@@H](C)O)C(=O)NCC(=O)N[C@@H](CCCNC(=N)N)C(=O)N[C@@H](CC(C)C)C(=O)N[C@@H](CO)C(=O)N[C@@H](C)C(=O)N[C@@H](CCC(=O)O)C(=O)N[C@@H](CC(C)C)C(=O)N[C@@H](Cc1cnc[nH]1)C(=O)N[C@@H](CCC(=O)O)C(=O)N[C@@H](CC(C)C)C(=O)N[C@@H](C)C(=O)N[C@H](C(=O)N[C@@H](CC(C)C)C(=O)N1CCC[C@H]1C(=O)N[C@@H](CCCNC(=N)N)C(=O)N[C@H](C(=O)N[C@@H](CCC(=O)O)C(=O)N[C@H](C(=O)NCC(=O)N1CCC[C@H]1C(=O)N[C@@H](CCC(=O)O)C(=O)N[C@@H](CO)C(=O)N1CCC[C@H]1C(N)=O)[C@@H](C)O)[C@@H](C)O)[C@@H](C)O ({C18 diacid}-EASELSTLALGRLSAELHELATLPRTETGPESP-NH2) |
